Results: ChEMBL document CHEMBL1201862, “PubChem BioAssay data set” (2004)
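Cells were grown in 96-well plates and exposed to each compound for 48 hours at five concentrations; endpoints were interpolated linearly between bracketing concentrations, or set to the highest concentration if not reached. Abbreviation: GI50, concentration required for 50% inhibition of growth.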 Active and inactive are the calls of the source. Cut-off read from the data, not from the text of the source: active = GI50 up to about 1.1 µM and inactive = higher.

Columns and labels:
Assay in all cases: NCI anticancer screen, dose series, 48 h
M19-MEL = tested on: M19-MEL
SF-268 = tested on: SF-268
EKVX = tested on: EKVX
A549 = tested on: A549
Malme-3M = tested on: Malme-3M
HOP-92 = tested on: HOP-92
OVCAR-8 = tested on: OVCAR-8
UACC-257 = tested on: UACC-257
SK-OV-3 = tested on: SK-OV-3
U-251 = tested on: U-251
786-0 = tested on: 786-0
K562 = tested on: K562
OVCAR-5 = tested on: OVCAR-5
NCI-H23 = tested on: NCI-H23
SF-295 = tested on: SF-295
SR = tested on: SR
T47D = tested on: T47D
Hs-578T = tested on: Hs-578T
PC-3 = tested on: PC-3
BT-549 = tested on: BT-549

Measured: GI50

COc1ccc2c3c([nH]c2c1[N+](=O)[O-])C(C)N(C)CC3 (stereo not given)
inactive: M19-MEL > 100 µM | SF-268 > 10 µM | EKVX > 100 µM | A549 > 100 µM | Malme-3M > 100 µM | HOP-92 34 µM | OVCAR-8 > 100 µM | UACC-257 > 100 µM | SK-OV-3 > 100 µM | U-251 > 100 µM | 786-0 > 100 µM | K562 18.1 µM | OVCAR-5 > 100 µM | NCI-H23 > 100 µM | SF-295 62.8 µM

S=C(Nc1ccccc1)Nc1ccccc1SC(/C=C/NNC1=NN=C(c2ccccc2)C(c2ccccc2)N1)c1ccccc1 (stereo not given)
inactive: M19-MEL > 100 µM | SF-268 > 100 µM | EKVX > 100 µM | A549 > 100 µM | Malme-3M > 100 µM | HOP-92 3.97 µM | OVCAR-8 > 100 µM | SK-OV-3 > 100 µM | U-251 > 100 µM | 786-0 81.5 µM | K562 64.9 µM | OVCAR-5 > 100 µM | SF-295 69.3 µM

CCOC1=C2C(=O)OC(=O)C2C2CCCCC2=C1 (stereo not given)
inactive: M19-MEL > 100 µM | SF-268 > 100 µM | EKVX > 100 µM | A549 > 100 µM | Malme-3M > 100 µM | HOP-92 > 100 µM | OVCAR-8 > 100 µM | UACC-257 > 100 µM | SK-OV-3 > 100 µM | U-251 > 100 µM | 786-0 > 100 µM | K562 > 100 µM | NCI-H23 > 100 µM | SF-295 > 100 µM

O=C(CO)C1CC2C=CC1C2 (stereo not given)
inactive: M19-MEL > 100 µM | SF-268 > 100 µM | EKVX > 100 µM | A549 > 100 µM | Malme-3M > 100 µM | HOP-92 > 100 µM | OVCAR-8 > 100 µM | UACC-257 > 100 µM | SK-OV-3 > 100 µM | U-251 > 100 µM | 786-0 > 100 µM | K562 > 100 µM | OVCAR-5 > 100 µM | NCI-H23 > 100 µM | SF-295 > 100 µM

Cc1ccc(-c2nc3c(C(=O)NCCN(C)C)cccc3[nH]2)cc1
inactive: M19-MEL 16.2 µM | SF-268 18.5 µM | EKVX 24.4 µM | A549 11.2 µM | HOP-92 13.1 µM | OVCAR-8 15.2 µM | UACC-257 14 µM | SK-OV-3 14.5 µM | U-251 18.3 µM | 786-0 24.4 µM | K562 13.7 µM | OVCAR-5 20.9 µM | NCI-H23 15 µM | SF-295 16.7 µM

COC(=O)[C@@]12C(=O)C=CC(=O)C1C1C(=CC2C)OC2OC3(CCCCC3)OC21 (stereo not given in full)
inactive: M19-MEL 19.2 µM | SF-268 20.9 µM | EKVX 19.7 µM | A549 19.3 µM | Malme-3M 20.2 µM | OVCAR-8 16.4 µM | UACC-257 17.1 µM | SK-OV-3 18.6 µM | U-251 17.7 µM | 786-0 17.5 µM | K562 6.9 µM | OVCAR-5 14.3 µM | NCI-H23 19.4 µM | SF-295 18.9 µM

Cc1c(C(=O)/C=C/c2ccccc2O)c(=O)n(-c2ccccc2)n1C
inactive: M19-MEL 23.9 µM | SF-268 37.8 µM | EKVX 68.7 µM | A549 34 µM | Malme-3M 19.4 µM | HOP-92 28.3 µM | OVCAR-8 15.6 µM | UACC-257 22.4 µM | SK-OV-3 36.1 µM | U-251 12.2 µM | 786-0 20.4 µM | OVCAR-5 66.8 µM | NCI-H23 > 10 µM | SF-295 14.6 µM

Cc1cccc(C)c1NC(=O)CCCC(=O)C(C#N)c1ccccc1 (stereo not given)
inactive: M19-MEL > 100 µM | SF-268 > 10 µM | EKVX > 10 µM | A549 > 10 µM | HOP-92 > 100 µM | OVCAR-8 > 10 µM | UACC-257 > 100 µM | SK-OV-3 91 µM | U-251 > 10 µM | 786-0 > 10 µM | K562 > 100 µM | OVCAR-5 > 10 µM | NCI-H23 > 100 µM | SF-295 > 10 µM | SR > 100 µM

CCN(CC)c1nc(N(C)C)c2ccc(OC)cc2n1
inactive: SF-268 32.3 µM | EKVX 3.95 µM | A549 19.7 µM | Malme-3M 18.3 µM | T47D 17.2 µM | HOP-92 18.5 µM | OVCAR-8 15.2 µM | UACC-257 11.5 µM | SK-OV-3 13.7 µM | Hs-578T 39.9 µM | PC-3 17.3 µM | U-251 20.2 µM | 786-0 17.5 µM | K562 14 µM | OVCAR-5 16.7 µM | NCI-H23 15.1 µM | SF-295 17.2 µM | BT-549 22.8 µM | SR 12.7 µM

O=C1CSC(c2cccc(Oc3ccccc3)c2)N1c1ccc(Cl)cc1 (stereo not given)
inactive: SF-268 30.3 µM | EKVX 20.7 µM | A549 31.9 µM | Malme-3M 20.4 µM | T47D 10.2 µM | HOP-92 13.4 µM | OVCAR-8 34.7 µM | UACC-257 17.4 µM | SK-OV-3 66.4 µM | Hs-578T 32.9 µM | PC-3 23 µM | U-251 31 µM | 786-0 31.8 µM | K562 15.7 µM | OVCAR-5 65.5 µM | NCI-H23 25.5 µM | SF-295 31 µM | BT-549 27.7 µM | SR 14 µM

c1ccc2c(c1)OCCOCCOc1ccccc1OCCO2
inactive: M19-MEL 41.9 µM | SF-268 > 100 µM | EKVX 75 µM | A549 71 µM | Malme-3M 33.1 µM | HOP-92 51.5 µM | OVCAR-8 78 µM | UACC-257 84.7 µM | SK-OV-3 > 100 µM | U-251 34.4 µM | 786-0 86.9 µM | K562 28.4 µM | OVCAR-5 77.3 µM | NCI-H23 > 100 µM | SF-295 62.4 µM

O=C(CSc1nnc[nH]1)C[P+](c1ccccc1)(c1ccccc1)c1ccccc1
inactive: M19-MEL > 100 µM | SF-268 > 100 µM | EKVX > 100 µM | A549 > 100 µM | Malme-3M > 100 µM | HOP-92 22.9 µM | OVCAR-8 > 100 µM | UACC-257 > 100 µM | SK-OV-3 > 100 µM | 786-0 > 100 µM | K562 43.4 µM | OVCAR-5 > 100 µM | NCI-H23 > 100 µM | SF-295 > 100 µM

O=C(O)CCSC1=NCCN1
inactive: SF-268 > 100 µM | EKVX > 100 µM | A549 > 100 µM | Malme-3M > 100 µM | T47D > 100 µM | HOP-92 > 100 µM | OVCAR-8 > 100 µM | UACC-257 64 µM | SK-OV-3 > 100 µM | Hs-578T > 100 µM | PC-3 > 100 µM | U-251 > 100 µM | 786-0 > 100 µM | K562 > 100 µM | OVCAR-5 > 100 µM | NCI-H23 > 100 µM | SF-295 > 100 µM | BT-549 > 100 µM | SR > 100 µM
